Earlier results in patent US20060211763A1, “Treatment with Statin and Omega-3 Fatty Acids and a Combination Product Thereof” (priority 2005, published 2006).
Each block holds one compound with its values, some of them ahead of it.

Assays:
[1] = system: patients with hyperlipidemia; conditions: 900 or 1800 mg/day EPA ethyl ester for 3 months added to 5-20 mg/day pravastatin or 5 mg/day simvastatin; vs baseline monotherapy
[2] = system: patients with hyperlipemia; conditions: 10 mg/day atorvastatin 5 weeks (vs baseline)
[3] = in vivo
[4] = system: patients with hypercholesterolemia; conditions: 40 mg/day lovastatin 6 weeks
[5] = then plus 2 g/day Omacor 5 weeks (vs atorvastatin alone; insignificant)
[6] = then combination with 6 g/day Omacor 6 weeks

SMILES: CC/C=C\C/C=C\C/C=C\C/C=C\C/C=C\CCCC(=O)OCC [EPA ethyl ester]
HDL-C levels [1]: significantly increased
Triglyceride levels [1]: significantly reduced

SMILES: CC(C)c1c(C(=O)Nc2ccccc2)c(-c2ccccc2)c(-c2ccc(F)cc2)n1CC[C@@H](O)C[C@@H](O)CC(=O)O [atorvastatin]
HDL-C levels ([2]; then plus 2 g/day Omacor 5 weeks (vs atorvastatin alone)): significantly increased
LDL-C levels [2, 5]: significantly decreased
Triglyceride levels [2, 5]: significantly decreased

Bioavailability [3]: approximately 24%
SMILES: CC(C)n1c(/C=C/C(O)CC(O)CC(=O)O)c(-c2ccc(F)cc2)c2ccccc21 (stereo not drawn) [fluvastatin]

Degradation in alkaline environment: converted to the acid form
Rate of absorption [3]: about 30%
SMILES: CC[C@H](C)C(=O)O[C@H]1C[C@@H](C)C=C2C=C[C@H](C)[C@H](CC[C@@H]3C[C@@H](O)CC(=O)O3)[C@H]21 [lovastatin]
HDL-C levels [4]: significant increases
LDL-C levels [4, 6]: significant decreases
Triglyceride levels [4, 6]: significant decreases

Effect of food on absorption [3]: best absorbed without food
SMILES: CC[C@H](C)C(=O)O[C@H]1C[C@H](O)C=C2C=C[C@H](C)[C@H](CC[C@@H](O)C[C@@H](O)CC(=O)O)[C@H]21 [pravastatin]
